For 19 compounds, Dmax, DC50 and EC50 results are on record in patent US20250243180A1, “TARGETED PROTEIN DEGRADATION” (Monte Rosa Therapeutics AG, priority 2023, published 2025).

SMILES strings stand for the structures. Read-outs that look alike come from different tables or passages of the source. Where only a bound is given, the exact number is not on record here.

In experiment [1] the target is NEK7 (Homo sapiens (Human), UniProt Q8TDX7+Q96SW2). The experiment can be described thus: NEK7 NanoBiT degradation assay in Cal51 NEK7 NanoBiT cell line. Format: cell-based. Particulars: Cal51 NEK7 NanoBiT cells, 24 hours; for Dmax: CAL-51. The method, boiled down:
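Cal51 cells with CRISPR knock-in HiBiT-tagged endogenous NEK7 plus stable LgBiT, in live-cell Endurazine medium, seeded 16 h before dosing. Compounds at final 1 μM to 0.05 nM for 24 h at 37 °C, then luminescence read. Response normalized to plate controls and fitted with a 4-parameter logistic giving EC50.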

For experiment [2], the target named is CRBN-DDB1 (Homo sapiens (Human), UniProt Q96SW2). The experiment can be described thus: Compound binding to CRBN by HTRF assay. A digest of the protocol:
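HTRF displacement of Cy5-thalidomide probe (100 nM) from His-tagged CRBN-DDB1 (2.5 nM) with anti-His terbium cryptate, in HEPES/NaCl/TCEP/EDTA/Tween20 buffer; 11-point 1:3 dilution series, 30 min at ambient temperature. Signal (665/620 nm) normalized to lenalidomide and DMSO controls; EC50 fitted, Ki by Cheng-Prusoff from geometric mean EC50.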
On the technique in general: In TR-FRET formats the signal depends on donor and acceptor labels being close together.

Where [3] appears, read: NEK7 degradation, read-out: NanoBiT Dmax.
Where [4] appears, read: NEK7 degradation, read-out: NanoBiT DC50.

Chain of CRBN-DDB1 (Q96SW2 whole entry): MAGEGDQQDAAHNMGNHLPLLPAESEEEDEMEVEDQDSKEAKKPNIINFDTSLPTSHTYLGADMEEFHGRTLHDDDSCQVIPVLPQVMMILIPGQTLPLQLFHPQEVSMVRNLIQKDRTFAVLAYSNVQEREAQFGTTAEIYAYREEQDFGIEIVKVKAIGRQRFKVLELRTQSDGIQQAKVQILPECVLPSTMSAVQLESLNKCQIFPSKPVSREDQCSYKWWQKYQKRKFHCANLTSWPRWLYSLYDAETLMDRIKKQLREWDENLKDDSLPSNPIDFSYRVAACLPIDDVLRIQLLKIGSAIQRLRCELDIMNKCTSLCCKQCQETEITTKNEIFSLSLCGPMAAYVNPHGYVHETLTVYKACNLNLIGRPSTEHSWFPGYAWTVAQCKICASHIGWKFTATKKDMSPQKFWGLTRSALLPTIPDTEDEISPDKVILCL
Chain of CRBN-DDB1 (Q16531 whole entry partner): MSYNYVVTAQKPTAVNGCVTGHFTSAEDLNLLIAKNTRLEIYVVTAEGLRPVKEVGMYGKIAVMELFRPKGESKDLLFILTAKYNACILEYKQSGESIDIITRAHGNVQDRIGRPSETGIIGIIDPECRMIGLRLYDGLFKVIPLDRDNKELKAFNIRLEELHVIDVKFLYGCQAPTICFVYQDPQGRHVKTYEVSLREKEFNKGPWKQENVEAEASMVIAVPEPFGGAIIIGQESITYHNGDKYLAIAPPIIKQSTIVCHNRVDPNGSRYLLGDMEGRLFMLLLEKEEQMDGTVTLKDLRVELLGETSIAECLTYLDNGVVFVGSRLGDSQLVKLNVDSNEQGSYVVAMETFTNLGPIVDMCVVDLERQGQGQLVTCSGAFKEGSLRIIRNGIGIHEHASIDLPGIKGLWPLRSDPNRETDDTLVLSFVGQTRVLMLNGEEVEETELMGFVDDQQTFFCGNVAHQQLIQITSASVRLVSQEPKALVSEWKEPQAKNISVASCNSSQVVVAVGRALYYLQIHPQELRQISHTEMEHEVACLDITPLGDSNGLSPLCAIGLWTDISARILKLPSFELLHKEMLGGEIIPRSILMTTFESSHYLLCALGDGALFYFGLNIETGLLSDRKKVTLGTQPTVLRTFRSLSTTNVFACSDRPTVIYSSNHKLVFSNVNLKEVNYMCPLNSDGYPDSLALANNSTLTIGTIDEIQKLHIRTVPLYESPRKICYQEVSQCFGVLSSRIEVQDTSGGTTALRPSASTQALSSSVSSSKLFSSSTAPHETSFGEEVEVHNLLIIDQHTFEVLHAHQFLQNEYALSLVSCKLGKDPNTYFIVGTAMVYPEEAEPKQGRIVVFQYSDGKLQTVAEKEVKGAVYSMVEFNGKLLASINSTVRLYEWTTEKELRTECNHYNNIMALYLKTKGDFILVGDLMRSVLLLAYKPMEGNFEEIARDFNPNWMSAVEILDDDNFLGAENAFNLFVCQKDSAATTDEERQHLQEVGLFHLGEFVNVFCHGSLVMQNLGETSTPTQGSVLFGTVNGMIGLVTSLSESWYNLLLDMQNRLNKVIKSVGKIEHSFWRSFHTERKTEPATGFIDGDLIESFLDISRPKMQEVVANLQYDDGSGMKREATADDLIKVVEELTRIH
Chain of NEK7 (Q8TDX7 whole entry): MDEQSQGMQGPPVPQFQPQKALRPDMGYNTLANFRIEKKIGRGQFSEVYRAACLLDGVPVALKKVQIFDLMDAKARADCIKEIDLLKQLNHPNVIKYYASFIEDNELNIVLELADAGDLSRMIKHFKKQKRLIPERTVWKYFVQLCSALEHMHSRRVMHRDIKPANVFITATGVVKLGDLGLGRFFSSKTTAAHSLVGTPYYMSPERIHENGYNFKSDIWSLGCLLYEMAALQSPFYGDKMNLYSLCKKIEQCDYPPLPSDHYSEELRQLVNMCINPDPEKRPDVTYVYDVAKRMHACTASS
Chain of NEK7 (Q96SW2 whole entry): as the sequence (Q96SW2 whole entry) above
Chain of NEK7 (Q16531 2-1140 partner): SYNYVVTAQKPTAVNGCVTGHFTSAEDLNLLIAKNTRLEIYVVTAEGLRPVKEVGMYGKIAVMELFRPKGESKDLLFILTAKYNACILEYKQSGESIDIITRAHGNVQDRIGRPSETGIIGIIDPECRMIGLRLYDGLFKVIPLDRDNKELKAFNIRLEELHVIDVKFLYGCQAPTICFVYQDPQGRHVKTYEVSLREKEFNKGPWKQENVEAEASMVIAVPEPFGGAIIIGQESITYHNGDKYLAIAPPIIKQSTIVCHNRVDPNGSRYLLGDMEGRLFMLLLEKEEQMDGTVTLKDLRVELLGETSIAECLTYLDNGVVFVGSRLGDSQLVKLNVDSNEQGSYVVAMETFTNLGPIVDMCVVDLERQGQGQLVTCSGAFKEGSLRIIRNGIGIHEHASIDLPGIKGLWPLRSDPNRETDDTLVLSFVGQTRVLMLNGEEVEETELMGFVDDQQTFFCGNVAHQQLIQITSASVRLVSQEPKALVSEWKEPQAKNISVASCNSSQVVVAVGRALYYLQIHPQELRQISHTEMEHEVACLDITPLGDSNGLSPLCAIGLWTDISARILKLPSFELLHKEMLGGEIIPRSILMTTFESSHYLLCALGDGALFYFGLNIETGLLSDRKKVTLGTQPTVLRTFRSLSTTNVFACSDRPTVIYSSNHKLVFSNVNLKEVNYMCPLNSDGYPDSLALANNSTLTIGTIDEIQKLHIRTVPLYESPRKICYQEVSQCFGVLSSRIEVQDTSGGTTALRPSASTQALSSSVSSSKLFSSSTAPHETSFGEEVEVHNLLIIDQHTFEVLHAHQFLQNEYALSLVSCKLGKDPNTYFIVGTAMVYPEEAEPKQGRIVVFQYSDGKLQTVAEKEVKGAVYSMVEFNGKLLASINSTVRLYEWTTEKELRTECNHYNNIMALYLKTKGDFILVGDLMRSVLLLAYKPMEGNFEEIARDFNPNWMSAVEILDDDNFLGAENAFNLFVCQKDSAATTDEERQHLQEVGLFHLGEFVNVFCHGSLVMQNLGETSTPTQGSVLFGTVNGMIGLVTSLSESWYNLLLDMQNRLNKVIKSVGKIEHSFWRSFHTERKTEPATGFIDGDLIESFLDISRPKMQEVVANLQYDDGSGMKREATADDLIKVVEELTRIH

For `Cc1nnc(C(C)(C)C(=O)NCc2cc(Cl)c([C@H]3CCC(=O)NC3=O)c(Cl)c2)o1` (single isomer, unassigned) [Compound 225], the Dmax (in general, the greatest extent of degradation seen) in experiment [1] (read-out: NEK7 NanoBiT Dmax) was 49%; in experiment [1] (setting [3]) it was not above 50%. In addition, the DC50 (commonly the midpoint of the concentration-degradation curve) is 1000 nM in experiment [1] (read-out: NEK7 NanoBiT DC50) and more than 1000 nM in experiment [1] (setting [4]). The EC50 (as a rule, the midpoint of the concentration-response curve) in experiment [2] is 6560 nM; in experiment [2] (HTRF class, Cereblon binding), more than 1000 nM.
For `[2H]C([2H])([2H])C(C(=O)NCc1cc(Cl)c(C2CCC(=O)NC2=O)c(Cl)c1)(c1ncc(C)cn1)C([2H])([2H])[2H]` (stereo not drawn) [Compound 237], the Dmax is 87% in experiment [1] (read-out: NEK7 NanoBiT Dmax) and more than 75% in experiment [1] (setting [3]). The DC50 is 11 nM in experiment [1] (read-out: NEK7 NanoBiT DC50) and not above 100 nM in experiment [1] (setting [4]). The EC50 in experiment [2] is 150 nM; in experiment [2] (HTRF class, Cereblon binding), 100 to 1000 nM.
Consider `CC(C)(C(=O)NCc1cc(Cl)c(C2CCC(=O)NC2=O)c(Cl)c1)c1nccc(C(F)F)n1` (stereo not drawn) [Compound 182], for which the Dmax in experiment [1] (read-out: NEK7 NanoBiT Dmax) is 72%; in experiment [1] (setting [3]) it was 50 to 75%. For the same compound, the values for the DC50 in experiment [1] (read-out: NEK7 NanoBiT DC50) and in experiment [1] (setting [4]) were 54 nM and not above 100 nM, respectively. Also, the EC50 in experiment [2] was 200 nM; in experiment [2] (HTRF class, Cereblon binding) it was 100 to 1000 nM.
Turning to `CC(C)(C(=O)NCc1cc(Cl)c(C2CCC(=O)NC2=O)c(Cl)c1)c1ccc2nnccc2c1` (stereo not drawn) [Compound 41], the maximal degradation (Dmax) in experiment [1] (read-out: NEK7 NanoBiT Dmax) is 98%; in experiment [1] (setting [3]), more than 75%. The DC50 is 0.4 nM in experiment [1] (read-out: NEK7 NanoBiT DC50) and not above 100 nM in experiment [1] (setting [4]). Also, the EC50 in experiment [2] was 60 nM; in experiment [2] (HTRF class, Cereblon binding) it was not above 100 nM.
Take `CC(C)(C(=O)NCc1cc(Cl)c(C2CCC(=O)NC2=O)c(Cl)c1)c1ccccc1F` (stereo not drawn) [Compound 26]: the Dmax in experiment [1] (read-out: NEK7 NanoBiT Dmax) was 96%; in experiment [1] (setting [3]), more than 75%. In addition, the 50% degradation concentration (DC50) in experiment [1] (read-out: NEK7 NanoBiT DC50) is 2 nM; in experiment [1] (setting [4]), not above 100 nM. Besides, the concentration for a half-maximal effect (EC50) is 70 nM in experiment [2] and not above 100 nM in experiment [2] (HTRF class, Cereblon binding).
For `CC1(c2cnc(C(C)(C)C(=O)NCc3cc(Cl)c(C4CCC(=O)NC4=O)c(Cl)c3)nc2)CC1` (stereo not drawn) [Compound 207], the values for the Dmax in experiment [1] (read-out: NEK7 NanoBiT Dmax) and in experiment [1] (setting [3]) were 82% and more than 75%, respectively. The 50% degradation concentration (DC50) in experiment [1] (read-out: NEK7 NanoBiT DC50) was 19 nM; in experiment [1] (setting [4]) it was not above 100 nM. The concentration giving a half-maximal response (EC50) in experiment [2] is 90 nM; in experiment [2] (HTRF class, Cereblon binding) it was not above 100 nM.
Consider `COc1conc1C(C)(C)C(=O)NCc1cc(F)c(C2CCC(=O)NC2=O)c(Cl)c1` (stereo not drawn) [Compound 268], for which the greatest degradation seen (Dmax) in experiment [1] (read-out: NEK7 NanoBiT Dmax) was 88%; in experiment [1] (setting [3]), more than 75%. Moreover, the DC50 is 11 nM in experiment [1] (read-out: NEK7 NanoBiT DC50) and not above 100 nM in experiment [1] (setting [4]). Moreover, the EC50 in experiment [2] is 120 nM; in experiment [2] (HTRF class, Cereblon binding) it was 100 to 1000 nM.
With `Cc1cncnc1C(C)(C)C(=O)NCc1cc(Cl)c(C2CCC(=O)NC2=O)c(Cl)c1` (stereo not drawn) [Compound 158], the results for the Dmax in experiment [1] (read-out: NEK7 NanoBiT Dmax) and in experiment [1] (setting [3]) were 91% and more than 75%, respectively. The DC50 in experiment [1] (read-out: NEK7 NanoBiT DC50) is 8 nM; in experiment [1] (setting [4]), not above 100 nM. Besides, the concentration giving a half-maximal response (EC50) in experiment [2] was 320 nM; in experiment [2] (HTRF class, Cereblon binding), 100 to 1000 nM.
In the case of `CC(C)(C(=O)NCc1cc(Cl)c(C2CCC(=O)NC2=O)c(Cl)c1)c1ccc2[nH]c(=O)oc2c1` (stereo not drawn) [Compound 77], the greatest degradation seen (Dmax) in experiment [1] (read-out: NEK7 NanoBiT Dmax) is 95%; in experiment [1] (setting [3]), more than 75%. The results for the DC50 in experiment [1] (read-out: NEK7 NanoBiT DC50) and in experiment [1] (setting [4]) were 3 nM and not above 100 nM, respectively. In addition, the EC50 in experiment [2] is 70 nM; in experiment [2] (HTRF class, Cereblon binding), not above 100 nM.
As for `Cn1cncc1C(C)(C)C(=O)NCc1cc(Cl)c(C2CCC(=O)NC2=O)c(Cl)c1` (stereo not drawn) [Compound 123], the values for the maximal degradation (Dmax) in experiment [1] (read-out: NEK7 NanoBiT Dmax) and in experiment [1] (setting [3]) were 70% and 50 to 75%, respectively. Moreover, the DC50 in experiment [1] (read-out: NEK7 NanoBiT DC50) was 100 nM; in experiment [1] (setting [4]), 100 to 1000 nM. Further, the concentration giving a half-maximal response (EC50) in experiment [2] was 610 nM; in experiment [2] (HTRF class, Cereblon binding), 100 to 1000 nM.
As for `CC(C)(C(=O)NCc1cc(Cl)c(C2CCC(=O)NC2=O)c(Cl)c1)c1ccc(C#N)cn1` (stereo not drawn) [Compound 15, 2-(5-cyanopyridin-2-yl)-N-(3,5-dichloro-4-(2,6-dioxopiperidin-3-yl)benzyl)-2-methylpropanamide], the Dmax was 95% in experiment [1] (read-out: NEK7 NanoBiT Dmax) and more than 75% in experiment [1] (setting [3]). Further, the DC50 was 4 nM in experiment [1] (read-out: NEK7 NanoBiT DC50) and not above 100 nM in experiment [1] (setting [4]). Moreover, the EC50 was 120 nM in experiment [2] and 100 to 1000 nM in experiment [2] (HTRF class, Cereblon binding).
Turning to `COc1cnc(C(C)(C)C(=O)NCc2cc(Cl)c(C3CCC(=O)NC3=O)c(Cl)c2)nc1` (stereo not drawn) [Compound 189], the Dmax in experiment [1] (read-out: NEK7 NanoBiT Dmax) was 94%; in experiment [1] (setting [3]) it was more than 75%. Further, the half-maximal degradation concentration (DC50) in experiment [1] (read-out: NEK7 NanoBiT DC50) was 4 nM; in experiment [1] (setting [4]), not above 100 nM. The EC50 was 70 nM in experiment [2] and not above 100 nM in experiment [2] (HTRF class, Cereblon binding).
`CC(C)(C(=O)NCc1ccc(C2CCC(=O)NC2=O)c(Cl)c1)c1cccc(C#N)c1` (stereo not drawn) [Compound 18]: the figures for the Dmax in experiment [1] (read-out: NEK7 NanoBiT Dmax) and in experiment [1] (setting [3]) were 61% and 50 to 75%, respectively. For the same compound, the results for the DC50 in experiment [1] (read-out: NEK7 NanoBiT DC50) and in experiment [1] (setting [4]) were 206 nM and 100 to 1000 nM, respectively. Further, the EC50 is 540 nM in experiment [2] and 100 to 1000 nM in experiment [2] (HTRF class, Cereblon binding).
As for `CC(C)(C(=O)NCc1cc(Cl)c(C2CCC(=O)NC2=O)c(Cl)c1)c1ncc(OC(F)(F)F)cn1` (stereo not drawn) [Compound 229, N-(3,5-dichloro-4-(2,6-dioxopiperidin-3-yl)benzyl)-2-methyl-2-(5-(trifluoromethoxy)-pyrimidin-2-yl)propanamide], the maximal degradation (Dmax) was 88% in experiment [1] (read-out: NEK7 NanoBiT Dmax) and more than 75% in experiment [1] (setting [3]). Also, the DC50 in experiment [1] (read-out: NEK7 NanoBiT DC50) is 12 nM; in experiment [1] (setting [4]), not above 100 nM. The EC50 was 120 nM in experiment [2] and 100 to 1000 nM in experiment [2] (HTRF class, Cereblon binding).
`CCOc1cnc(C(C)(C)C(=O)NCc2cc(Cl)c(C3CCC(=O)NC3=O)c(Cl)c2)cn1` (stereo not drawn) [Compound 234, N-(3,5-dichloro-4-(2,6-dioxopiperidin-3-yl)benzyl)-2-(5-ethoxypyrazin-2-yl)-2-methylpropanamide]: the values for the Dmax in experiment [1] (read-out: NEK7 NanoBiT Dmax) and in experiment [1] (setting [3]) were 97% and more than 75%, respectively. Moreover, the 50% degradation concentration (DC50) in experiment [1] (read-out: NEK7 NanoBiT DC50) was 1 nM; in experiment [1] (setting [4]) it was not above 100 nM. In addition, the concentration giving a half-maximal response (EC50) was 70 nM in experiment [2] and not above 100 nM in experiment [2] (HTRF class, Cereblon binding).
As for `CC(C)(C(=O)NCc1cc(Cl)c(C2CCC(=O)NC2=O)c(Cl)c1)c1ccc(C#N)cc1` (stereo not drawn) [Compound 29], the Dmax in experiment [1] (read-out: NEK7 NanoBiT Dmax) was 97%; in experiment [1] (setting [3]), more than 75%. In addition, the half-maximal degradation concentration (DC50) in experiment [1] (read-out: NEK7 NanoBiT DC50) is 0.4 nM; in experiment [1] (setting [4]), not above 100 nM. Further, the 50% effective concentration (EC50) was 80 nM in experiment [2] and not above 100 nM in experiment [2] (HTRF class, Cereblon binding).
Regarding `CC(C)(C(=O)NCc1cc(Cl)c(C2CCC(=O)NC2=O)c(Cl)c1)c1ccc2ncoc2n1` (stereo not drawn) [Compound 184], the maximal degradation (Dmax) was 95% in experiment [1] (read-out: NEK7 NanoBiT Dmax) and more than 75% in experiment [1] (setting [3]). Also, the DC50 in experiment [1] (read-out: NEK7 NanoBiT DC50) is 3 nM; in experiment [1] (setting [4]), not above 100 nM. The EC50 in experiment [2] was 180 nM; in experiment [2] (HTRF class, Cereblon binding) it was 100 to 1000 nM.
On to `CC(C)(C(=O)NCc1ccc(C2CCC(=O)NC2=O)c(Cl)c1)c1nc2ccccc2o1` (stereo not drawn) [Compound 246, 2-(benzo[d]oxazol-2-yl)-N-(3-chloro-4-(2,6-dioxopiperidin-3-yl)benzyl)-2-methylpropanamide], for which the greatest degradation seen (Dmax) is 82% in experiment [1] (read-out: NEK7 NanoBiT Dmax) and more than 75% in experiment [1] (setting [3]). For the same compound, the DC50 in experiment [1] (read-out: NEK7 NanoBiT DC50) was 27 nM; in experiment [1] (setting [4]) it was not above 100 nM. Besides, the concentration giving a half-maximal response (EC50) was 180 nM in experiment [2] and 100 to 1000 nM in experiment [2] (HTRF class, Cereblon binding).
As to `Cn1ccc(C2(C(=O)NCc3cc(Cl)c(C4CCC(=O)NC4=O)c(Cl)c3)CCC2)cc1=O` (stereo not drawn) [Compound 177], the Dmax is 85% in experiment [1] (read-out: NEK7 NanoBiT Dmax) and more than 75% in experiment [1] (setting [3]). In addition, the DC50 is 53 nM in experiment [1] (read-out: NEK7 NanoBiT DC50) and not above 100 nM in experiment [1] (setting [4]). Besides, the EC50 is 550 nM in experiment [2] and 100 to 1000 nM in experiment [2] (HTRF class, Cereblon binding).
